Experimental findings from US20250154138A1, “Small Molecule IL-17A Modulators” (BeiGene, Ltd., priority 2022, published 2025) are described below.

The target in assay [1] is human IL-17A / human IL-17RA (Homo sapiens (Human), UniProt Q16552). Put plainly: Human IL-17A biochemical assay (HTRF, blocking of IL-17A binding to IL-17RA). The following applies: 0.4 nM IL-17A, 0.3 nM IL-17RA, max compound concentration 10 uM. The method, boiled down: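 0.4 nM hIL-17A + cpd (10 uM top, 2.7x, 10 pt), 3 h RT, HEPES pH 7.5 buffer w/ BSA, DTT, Tween 20; + 0.3 nM hIL-17RA 1 h RT; Tb/XL665 Abs 1 h; HTRF 620/665 ratio; 4PL IC50.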

Assay [2] concerns IL-17-induced GROα secretion from HT-29 cells. Kind of assay: GROα release assay in human colorectal adenocarcinoma epithelial cell (HT-29, ELISA). It counts as cell-based. The note with it: Homo sapiens, HT-29, 48 h, 10 ng/mL IL-17A, highest concentration 10 μM, read-out: Cellular assay HT29 cell/CXCL1 IC50. The gist of the method:
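HT-29 cells were exposed 48 h at 37°C to IL-17A (final 10 ng/mL) preincubated 15 min with compound (4-fold dilutions, top 10 μM). Secreted GROα was quantified by ELISA against a standard curve, and IC50 obtained by four-parameter fitting.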
For orientation: In an ELISA, binding on a coated surface is turned into a signal by an enzyme label.

human IL-17A / human IL-17RA, sequence (Q16552 24-155): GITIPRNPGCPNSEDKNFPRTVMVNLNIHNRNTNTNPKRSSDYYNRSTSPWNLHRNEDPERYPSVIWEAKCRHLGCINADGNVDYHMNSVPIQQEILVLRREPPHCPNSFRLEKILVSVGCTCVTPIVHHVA

As to `Cn1nccc1C(=O)N[C@H](C(=O)Nc1ccc2c(c1)CC(CNc1ccccc1F)(N1CC3(CC3)CNC1=O)C2)C1CCCCC1` (stereo partly drawn) [Example 172, N-((1S)-1-cyclohexyl-2-((2-(((2-fluorophenyl)amino)methyl)-2-(6-oxo-5,7-diazaspiro[2.5]octan-5-yl)-2,3-dihydro-1H-inden-5-yl)amino)-2-oxoethyl)-1-methyl-1H-pyrazole-5-carboxamide], the results for the IC50 in assay [1] and in assay [2] were 400 nM and 377 nM, respectively.
On the same counts, the results for `CCCC1CN(C2(C(=O)NC)Cc3ccc(NC(=O)[C@@H](NC(=O)c4ccnn4C)C4CCCCC4)cc3C2)C(=O)N1` (stereo partly drawn) [Example 26, N-((1S)-1-cyclohexyl-2-((2-(methylcarbamoyl)-2-(2-oxo-4-propylimidazolidin-1-yl)-2,3-dihydro-1H-inden-5-yl)amino)-2-oxoethyl)-1-methyl-1H-pyrazole-5-carboxamide] are 360 nM and 1080 nM.
On the same counts, the results for `Cc1nonc1C(=O)N[C@H](C(=O)Nc1ccc2c(c1)CC(C(=O)Nc1cccc(Cl)c1)(N1CC3(CC3)CNC1=O)C2)C1CCC(F)(F)CC1` (stereo partly drawn) [Example 220, N-((1S)-2-((2-((3-chlorophenyl)carbamoyl)-2-(6-oxo-5,7-diazaspiro[2.5]octan-5-yl)-2,3-dihydro-1H-inden-5-yl)amino)-1-(4,4-difluorocyclohexyl)-2-oxoethyl)-4-methyl-1,2,5-oxadiazole-3-carboxamide] are 169 nM and 80.6 nM.
For the molecule `Cn1nccc1C(=O)NC(C(=O)Nc1ccc2c(c1)CC(N1C[C@@H](C(F)(F)F)NC1=O)C2)C1Cc2ccc(Cl)cc2C2(CC2)C1` (stereo partly drawn) [Example 224, N-(1-(7′-chloro-3′,4′-dihydro-2′H-spiro[cyclopropane-1,1′-naphthalen]-3′-yl)-2-oxo-2-((2-((S)-2-oxo-4-(trifluoromethyl)imidazolidin-1-yl)-2,3-dihydro-1H-inden-5-yl)amino)ethyl)-1-methyl-1H-pyrazole-5-carboxamide], the IC50 in assay [1] came to 47.8 nM; in assay [2], 85.1 nM.
Consider `Cc1nonc1C(=O)N[C@H](C(=O)Nc1ccc2c(c1)CC(C(=O)NC1CCCC1)(N1C[C@@H](C(C)C)NC1=O)C2)C(C1CC1)C1CC1` (stereo partly drawn) [Example 282, N-((2S)-1-((2-(cyclopentylcarbamoyl)-2-((R)-4-isopropyl-2-oxoimidazolidin-1-yl)-2,3-dihydro-1H-inden-5-yl)amino)-3,3-dicyclopropyl-1-oxopropan-2-yl)-4-methyl-1,2,5-oxadiazole-3-carboxamide], for which the IC50 was determined as 33.7 nM in assay [1] and 95.3 nM in assay [2].
The like results for `COCC1(N2CC3(CC3)CNC2=O)Cc2ccc(NC(=O)[C@@H](NC(=O)c3ccnn3C)C(C3CC3)C3CC3)cc2C1` (stereo partly drawn) [Example 159, N-((2S)-1,1-dicyclopropyl-3-((2-(methoxymethyl)-2-(6-oxo-5,7-diazaspiro[2.5]octan-5-yl)-2,3-dihydro-1H-inden-5-yl)amino)-3-oxopropan-2-yl)-1-methyl-1H-pyrazole-5-carboxamide] were, in that order, 53.2 nM and 187 nM.
The like results for `Cc1ccccc1NC(=O)C1(N2CC3(CC3)CNC2=O)Cc2ccc(NC(=O)[C@@H](NC(=O)c3nonc3C)C3CCC(F)(F)CC3)cc2C1` (stereo partly drawn) [Example 214, N-((1S)-1-(4,4-difluorocyclohexyl)-2-oxo-2-((2-(6-oxo-5,7-diazaspiro[2.5]octan-5-yl)-2-(o-tolylcarbamoyl)-2,3-dihydro-1H-inden-5-yl)amino)ethyl)-4-methyl-1,2,5-oxadiazole-3-carboxamide] were, in that order, 37.3 nM and 102 nM.
The like results for `Cc1nonc1C(=O)N[C@H](C(=O)Nc1ccc2c(c1)CC(C(=O)Nc1ccccc1F)(N1C[C@@H](C(C)C)NC1=O)C2)C(C1CC1)C1CC1` (stereo partly drawn) [Example 262, N-((2S)-1,1-dicyclopropyl-3-((2-((2-fluorophenyl)carbamoyl)-2-((R)-4-isopropyl-2-oxoimidazolidin-1-yl)-2,3-dihydro-1H-inden-5-yl)amino)-3-oxopropan-2-yl)-4-methyl-1,2,5-oxadiazole-3-carboxamide] were, in that order, 99.4 nM and 447 nM.
Turning to `Cc1nonc1C(=O)N[C@H](C(=O)Nc1ccc2c(c1)CC(C(=O)Nc1cccc(F)c1)(N1C[C@@H](C(C)C)NC1=O)C2)C(C1CC1)C1CC1` (stereo partly drawn) [Example 236, N-((2S)-1,1-dicyclopropyl-3-((2-((3-fluorophenyl)carbamoyl)-2-((R)-4-isopropyl-2-oxoimidazolidin-1-yl)-2,3-dihydro-1H-inden-5-yl)amino)-3-oxopropan-2-yl)-4-methyl-1,2,5-oxadiazole-3-carboxamide], the IC50 stood at 245 nM in assay [1] and 537 nM in assay [2].
For `Cc1nonc1C(=O)N[C@H](C(=O)Nc1ccc2c(c1)CC(C(=O)Nc1ccccc1Cl)(N1C[C@@H](C(C)C)NC1=O)C2)C(C1CC1)C1CC1` (stereo partly drawn) [Example 263, N-((2S)-1-((2-((2-chlorophenyl)carbamoyl)-2-((R)-4-isopropyl-2-oxoimidazolidin-1-yl)-2,3-dihydro-1H-inden-5-yl)amino)-3,3-dicyclopropyl-1-oxopropan-2-yl)-4-methyl-1,2,5-oxadiazole-3-carboxamide], the IC50 in assay [1] was determined as 97.1 nM; in assay [2] it was 447 nM.
The like results for `CNC(=O)C1(N2C[C@@H](Cc3ccc(F)cc3)NC2=O)Cc2ccc(NC(=O)[C@@H](NC(=O)c3ccnn3C)C3CCCCC3)cc2C1` (stereo partly drawn) [Example 76, N-((1S)-1-cyclohexyl-2-((2-((R)-4-(4-fluorobenzyl)-2-oxoimidazolidin-1-yl)-2-(methylcarbamoyl)-2,3-dihydro-1H-inden-5-yl)amino)-2-oxoethyl)-1-methyl-1H-pyrazole-5-carboxamide] were, in that order, 90 nM and 736 nM.
The like results for `CNC(=O)C1(N2C[C@@H](C(C)C)NC2=O)Cc2ccc(NC(=O)[C@@H](NC(=O)c3cccnc3)C3CCCCC3)cc2C1` (stereo partly drawn) [Example 58, N-((1S)-1-cyclohexyl-2-((2-((R)-4-isopropyl-2-oxoimidazolidin-1-yl)-2-(methylcarbamoyl)-2,3-dihydro-1H-inden-5-yl)amino)-2-oxoethyl)nicotinamide] were, in that order, 595 nM and 1440 nM.
On the same counts, the results for `Cc1nonc1C(=O)N[C@H](C(=O)Nc1ccc2c(c1)CC(c1nc3cccc(F)c3[nH]1)(N1CC3(CC3)CNC1=O)C2)C1CCC(F)(F)CC1` (stereo partly drawn) [Example 187, N-((1S)-1-(4,4-difluorocyclohexyl)-2-((2-(7-fluoro-1H-benzo[d]imidazol-2-yl)-2-(6-oxo-5,7-diazaspiro[2.5]octan-5-yl)-2,3-dihydro-1H-inden-5-yl)amino)-2-oxoethyl)-4-methyl-1,2,5-oxadiazole-3-carboxamide] are 249 nM and 246 nM.
As to `CNC(=O)C1(N2C[C@@H](C(C)C)NC2=O)Cc2ccc(NC(=O)[C@@H](NC(=O)Cc3ccccc3)C3CCCCC3)cc2C1` (stereo partly drawn) [Example 53, 5-((S)-2-cyclohexyl-2-(2-phenylacetamido)acetamido)-2-((R)-4-isopropyl-2-oxoimidazolidin-1-yl)-N-methyl-2,3-dihydro-1H-indene-2-carboxamide], the IC50 stood at 223 nM in assay [1] and 735 nM in assay [2].
